Data published in patent US20250057790A1, “AN INJECTABLE PHARMACEUTICAL COMPOSITION FOR THE TREATMENT OF RESPIRATORY DISEASES IN ANIMALS” (priority 2021, published 2025).
Converted amounts (≈) assume the structure as drawn.

Legend:
B. bronchiseptica = test: MIC determination, broth-microdilution (CLSI VET01-A4), field isolates; type: cell-based, Bordetella bronchiseptica
Method: (§1) This study determined the in vitro activity Compound (A), the enantiomer of the compound of Formula (I), against different isolates of Actinobacillus (A.) pleuropneumoniae, Bordetella (B.) bronchiseptica, Mannheimia (M.) haemolytica, Pasteurella (P.) multocida, Histophilus (H.) somni and Glaesserella parasuis collected in different European countries.
(§2) The in vitro activity was determined by measuring the minimum inhibitory concentrations (MIC) according to CLSI document VET01-A4 [1] and by calculating MIC50 and MIC90.
(§3) A total of 193 field isolates were tested: 31 of A. pleuropneumoniae, 20 of B. bronchiseptica, 20 of H. somni, 20 H. parasuis, 55 of M. haemolytica and 47 of P. multocida. All bacteria were isolated from the respiratory tract of cattle and swine suffering from respiratory disease. All isolates were epidemiologically unrelated as specified by the different suppliers. E. coli ATCC 25922 (ID 6105) and M. haemolytica ATCC 33396 (ID 6374) were used as reference strains for testing isolates of B. bronchiseptica, M. haemolytica and P. multocida. A. pleuropneumoniae ATCC 27090 (ID 6314) and H. somni ATCC 700025 (ID 6315) were used as reference strains for the testing isolates of A. pleuropneumoniae, H. somni and Glaesserella parasuis. Additionally, H. parasuis (G. parasuis) ATCC 19417 was included as type strain for growth control.
(§4) • Mueller-Hinton agar (Becton Dickinson, Lot 9224866) • Cation-adjusted Mueller-Hinton broth, (CAVHB, Becton Dickinson, Lot 8190586) • Sheep blood, defibrinated (Thermo Scientific, Lot 37091500) • Chocolate agar, GC II with IsoVitalex™ (Becton Dickinson, Lot 0147695) • GC-agar base (Becton Dickinson, Lot 6082608) • Hemoglobin solution (Becton Dickinson, Lot 7142854) • Vitox (Oxoid, Lot 2344976) • Veterinary fastidious Medium (VFM), prepared according to CLSI document VET01-A4 [1], containing: • CAMHB (Becton Dickinson, Lot 8190586) • Yeast extract (Sigma, Lot BCBS5470V) • Lysed horse blood (Thermo Scientific, Lot 35875000) • Supplement C™ (Becton Dickinson, Lot 8030960) • Deionized water
(§5) The MICs for all isolates except for H. somni and Glaesserella parasuis isolates, were determined by using the broth-microdilution method according to CLSI document VET01-A4 [1]. For isolates of H. somni and Glaesserella parasuis the agar-dilution method with chocolate agar GC II, was used. The test concentration range for all compounds was 16 μg/mL to 0.016 μg/mL.
The MIC results were interpreted according to the CLSI document VET01-S3 [2]. […] All wells containing test item were compared with the growth-control wells. The lowest concentration of compound at which no visible growth (i.e. no turbidity) was detected by the unaided eye was recorded as the MIC. […]

[1] = system: P. multocida (bovine origin); test: as above; type: cell-based, Pasteurella multocida
Method: as §1, §2, §3, §4, §5
(§6) The MIC results were interpreted according to the CLSI document VET01-S3 [2]. […] All wells containing test item were compared with the growth-control wells. The lowest concentration of compound at which no visible growth (i.e. no turbidity) was detected by the unaided eye was recorded as the MIC. If a “trailing endpoint” occurs, the MIC is defined as the first concentration at which a markedly reduction (about 90%) of the inoculum is observed.
(§7) For isolates tested by the agar-dilution method, results were interpreted according to the CLSI document VET01-S3 [2]. […] The MIC50 and MIC90 represent the concentrations at which a minimum of 50% or 90% of the isolates tested are inhibited.

[2] = system: P. multocida (porcine origin); test: as above; type: cell-based, Pasteurella multocida
Method: as §1, §2, §3, §4, §5, §6, §7

Glaesserella parasuis = test: MIC determination, agar-dilution (chocolate agar GC II), field isolates; type: cell-based
Method: as §1, §2, §3, §4, §5, §7

[3] = Injection site reactions in cattle; type: in vivo; settings: injectable pharmaceutical compositions
Method: Cattle injected with injectable pharmaceutical compositions containing Compound (A) were evaluated for reactions at the injection site. These injection site reactions were compared to the injection site reactions of cattle injected with injectable pharmaceutical compositions containing Compounds (B) and (C). The compounds were formulated as aqueous solution injectable pharmaceutical compositions or as suspension injectable pharmaceutical compositions as indicated below. These formulations were prepared as described in Examples 1 and 2. Compound (A) was formulated as both an aqueous solution using the free base form of the compound and as a suspense using the dihydrochloride salt of the compound. The composition of the aqueous solution injectable pharmaceutical composition was 15% w/v of Compound A, 15% w/v Poloxamer […], 6% w/v Benzyl Alcohol, 7% w/v Citric Acid, and QS Water. The composition of the suspension injectable pharmaceutical composition was 15% w/v Compound A (17.5% w/v HCl salt of Compound A), 0.1% w/v Kolliphor HS 15 and QS Miglyol 812. Compound A was administered to the animals in a dose of 10 mg/kilogram of body weight. Compound (B) was formulated as both an aqueous solution using the free base form of the compound and as a suspense using the dihydrochloride salt of the compound. The composition of the aqueous solution injectable pharmaceutical composition was 15% w/v of Compound B, 15% w/v Poloxamer […], 6% w/v Benzyl Alcohol, 7% w/v Citric Acid, and QS Water. The composition of the suspension injectable pharmaceutical composition was 15% w/v Compound B (17.5% w/v HCl salt of Compound B), 0.1% w/v Kolliphor HS 15 and QS Miglyol 812. Compound A was administered to the animals in a dose of 10 mg/kilogram of body weight. Compound (C) was formulated as both an aqueous solution using the free base form of the compound. The composition of the aqueous solution injectable pharmaceutical composition was 10% w/v of Compound C, 15% w/v Poloxamer […], 6% w/v Benzyl Alcohol, 7% w/v Citric Acid, and QS Water. Compound A was administered to the animals in a dose of 10 mg/kilogram of body weight. Injection sites were examined clinically by a trained person, Size of the swelling is measured with a ruler to the closest 0.5 cm horizontally, vertical and depth. These three measured values were multiplied to an estimation of the volume of the square box surrounding the observed swelling.

[4] = Bordetella bronchiseptica, 20 isolates, broth microdilution
[5] = Pasteurella multocida, 25 isolates of bovine origin, broth microdilution
[6] = of 25 isolates tested, bovine origin
[7] = Pasteurella multocida, 22 isolates of porcine origin, broth microdilution
[8] = of 22 isolates tested, porcine origin
[9] = Glaesserella parasuis, 20 isolates, agar dilution

SMILES: COCCNCc1ccc(C#Cc2ccc(C(=O)N[C@H](C(=O)NO)C(C)(C)N)cc2)cc1 [Compound A]
- MIC50 (B. bronchiseptica; [4]): 8 µg/mL (≈ 18.2 µM)
- MIC90 (B. bronchiseptica; [4]): 16 µg/mL (≈ 36.5 µM)
- Distribution of MICs: number of isolates with MIC 8 μg/mL (B. bronchiseptica; of 20 isolates tested): 10
- Distribution of MICs: number of isolates with MIC 16 μg/mL (B. bronchiseptica; of 20 isolates tested): 10
- MIC50 [1, 5]: 0.032 µg/mL (≈ 0.073 µM)
- MIC90 [1, 5]: 0.063 µg/mL (≈ 0.144 µM)
- Distribution of MICs: number of isolates with MIC 0.032 μg/mL [1, 6]: 12
- Distribution of MICs: number of isolates with MIC 0.063 μg/mL [1, 6]: 6
- Distribution of MICs: number of isolates with MIC 0.125 μg/mL [1, 6]: 1
- Distribution of MICs: number of isolates with MIC ≤0.016 μg/mL [1, 6]: 6
- MIC50 [2, 7]: 0.032 µg/mL (≈ 0.073 µM)
- MIC90 [2, 7]: 0.063 µg/mL (≈ 0.144 µM)
- Distribution of MICs: number of isolates with MIC 0.032 μg/mL [2, 8]: 12
- Distribution of MICs: number of isolates with MIC 0.063 μg/mL [2, 8]: 6
- Distribution of MICs: number of isolates with MIC 0.125 μg/mL [2, 8]: 1
- Distribution of MICs: number of isolates with MIC ≤0.016 μg/mL [2, 8]: 3
- MIC50 (Glaesserella parasuis; [9]): 1 µg/mL (≈ 2.28 µM)
- MIC90 (Glaesserella parasuis; [9]): 2 µg/mL (≈ 4.56 µM)
- Distribution of MICs: number of isolates with MIC 0.5 μg/mL (Glaesserella parasuis; of 20 isolates tested): 2
- Distribution of MICs: number of isolates with MIC 1 μg/mL (Glaesserella parasuis; of 20 isolates tested): 12
- Distribution of MICs: number of isolates with MIC 2 μg/mL (Glaesserella parasuis; of 20 isolates tested): 5
- Distribution of MICs: number of isolates with MIC 4 μg/mL (Glaesserella parasuis; of 20 isolates tested): 1
- Injection site reactions, overall assessment [3]: minor injection reactions which were resolved by Day 6
- Injection site reactions, overall assessment ([3]; listed as Compound (A)): tolerated at the injection site
